Laboratory results published in patent US20230225972A1 (priority 2020, published 2023).

System: influenza
Set-up: species or system Mice
Conditions: mouse, in vivo

Nc1nc2c(ncn2[C@@H]2O[C@@H]3COP(=O)(O)O[C@H]4[C@@H](O)[C@H](n5cnc6c(=O)[nH]c(N)nc65)O[C@@H]4COP(=O)(O)O[C@H]3[C@H]2O)c(=O)[nH]1 [c-di-GMP]
viral replication in the nose: facilitate reduction of viral replication in the nose
